Experimental data reported in patent US20230141603A1, “BENZODIAZEPINE DERIVATIVES AS GABA A GAMMA1 PAM” (Hoffmann-La Roche Inc., priority 2021, published 2023).

Assays:
[1] = target: T1, h-GABAA α1β3γ2 (Homo sapiens, UniProt P14867+P18507); assay: Radioligand binding assay, [3H]Flumazenil competition, HEK293F membranes; settings: for γ2/γ1 Selectivity Ratio: Ki α1β3γ2 (nM)/Ki α2β2γ1 (nM); for LogSel: Log[Ki α1β3γ2 (nM)/Ki α2β2γ1 (nM)]
T1 construct: expressed in transfected cells; host or cells: HEK293F cells, membranes
Summary of the method: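 [3H]Flumazenil competition binding on membranes from HEK293F cells transiently expressing human α1β3γ2 receptors. Incubation to equilibrium for 1 h at 4 °C, then filtration and scintillation counting. Ki is the mean of two determinations.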

[2] = target: T2, h-GABAA α2β2γ1 (Homo sapiens, UniProt P47869+Q8N1C3); assay: Two-electrode voltage clamp electrophysiology in Xenopus oocytes, modulation of GABA EC20 current; type: cell-based; parameters: host or cells: Xenopus laevis oocytes, RNA micro-injection; settings: for Efficacy (GABA)% / Fold increase h-GABA-A α2β2γ1 oocyte @ 30-fold Ki: Table 2; for Efficacy (GABA)%: % modulation of GABA EC20 = 100*(Fold increase−1), compound at approx. 30-fold Ki; for Fold increase h-GABA-A α2β2γ1 oocyte @ 30-fold Ki: compound at approx. 30-fold its Ki α2β2γ1, GABA EC20, Xenopus oocytes
T2 sequence (P47869 29-451): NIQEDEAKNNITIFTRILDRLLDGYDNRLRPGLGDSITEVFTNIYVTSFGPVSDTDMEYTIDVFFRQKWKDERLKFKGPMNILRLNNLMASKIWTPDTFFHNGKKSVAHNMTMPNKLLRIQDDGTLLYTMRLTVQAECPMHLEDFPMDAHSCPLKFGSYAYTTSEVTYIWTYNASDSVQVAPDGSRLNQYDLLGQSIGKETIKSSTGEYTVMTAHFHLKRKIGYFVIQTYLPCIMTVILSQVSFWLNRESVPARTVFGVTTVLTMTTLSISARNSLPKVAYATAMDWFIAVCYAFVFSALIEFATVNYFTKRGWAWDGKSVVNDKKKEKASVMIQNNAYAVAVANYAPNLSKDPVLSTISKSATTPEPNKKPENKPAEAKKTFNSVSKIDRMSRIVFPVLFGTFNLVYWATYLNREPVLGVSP
T2 sequence (P47870 25-512 partner limits assumed): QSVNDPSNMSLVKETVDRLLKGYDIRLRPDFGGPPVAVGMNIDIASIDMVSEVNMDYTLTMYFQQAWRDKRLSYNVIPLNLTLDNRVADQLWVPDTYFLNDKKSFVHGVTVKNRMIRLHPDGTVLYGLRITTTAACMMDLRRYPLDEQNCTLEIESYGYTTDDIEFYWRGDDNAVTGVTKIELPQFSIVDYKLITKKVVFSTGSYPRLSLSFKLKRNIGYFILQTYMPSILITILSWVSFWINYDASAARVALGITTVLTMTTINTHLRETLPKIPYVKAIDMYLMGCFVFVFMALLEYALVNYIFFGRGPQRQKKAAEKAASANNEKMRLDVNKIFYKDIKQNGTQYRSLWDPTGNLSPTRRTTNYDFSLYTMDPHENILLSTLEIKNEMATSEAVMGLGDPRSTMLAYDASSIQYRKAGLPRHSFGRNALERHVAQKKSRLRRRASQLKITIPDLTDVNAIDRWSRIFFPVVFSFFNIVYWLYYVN
T2 sequence (Q8N1C3 36-465): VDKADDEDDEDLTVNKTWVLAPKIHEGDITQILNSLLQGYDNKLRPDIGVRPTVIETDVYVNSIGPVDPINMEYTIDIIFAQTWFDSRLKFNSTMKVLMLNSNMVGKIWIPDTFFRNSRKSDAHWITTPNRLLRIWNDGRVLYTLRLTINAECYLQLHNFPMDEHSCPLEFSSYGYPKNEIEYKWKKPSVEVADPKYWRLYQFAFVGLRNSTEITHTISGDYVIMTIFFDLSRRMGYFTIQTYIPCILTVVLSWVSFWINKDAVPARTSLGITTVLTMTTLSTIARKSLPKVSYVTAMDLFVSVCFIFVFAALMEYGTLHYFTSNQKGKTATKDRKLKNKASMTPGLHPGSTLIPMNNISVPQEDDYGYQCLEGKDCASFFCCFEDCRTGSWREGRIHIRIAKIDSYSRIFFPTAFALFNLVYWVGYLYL
Summary of the method: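 Oocytes injected with receptor subunit mRNA were recorded 3–5 days later by two-electrode voltage clamp at −80 mV, room temperature, pH 7.4. Compound was applied during a second GABA EC20 pulse, with at least 3 oocytes per concentration. Efficacy is the ratio-trace extremum, expressed as % modulation of GABA EC20.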

| Structure (SMILES) | Ki [1] [nM] | γ2/γ1 Selectivity Ratio ([1]; Table 1) | LogSel ([1]; Table 1) | Efficacy (GABA)% [2] [%] | Fold increase h-GABA-A α2β2γ1 oocyte @ 30-fold Ki [2] | LogSel ([1]; Table 3) | potentiation of the GABA-induced current ([2]; α2β2γ1 GABAA receptor subtype expressing oocytes, reference PAMs) [%] |
| --- | --- | --- | --- | --- | --- | --- | --- |
| Cc1nnc2n1-c1ccc(Cl)c(Cl)c1C(c1ncccc1F)=NC2 [Example 71, 7,8-dichloro-6-(3-fluoro-2-pyridyl)-1-methyl-4H-[1,2,4]triazolo[4,3-a][1,4]benzodiazepine] | 1080 | 28.7 | 1.46 | 99 | 1.99 | – | – |
| Fc1cccnc1C1=NCc2nnc(-c3cccnn3)n2-c2ccc(C(F)(F)F)c(Cl)c21 [Example 72, 7-chloro-6-(3-fluoro-2-pyridyl)-1-pyridazin-3-yl-8-(trifluoromethyl)-4H-[1,2,4]triazolo[4,3-a][1,4]benzodiazepine] | 10300 | 342.1 | 2.53 | 630 | 7.30 | – | – |
| Fc1cccnc1C1=NCc2nnc(C3CC3)n2-c2ccc(Br)c(Cl)c21 [Example 77, 8-bromo-7-chloro-1-cyclopropyl-6-(3-fluoro-2-pyridyl)-4H-[1,2,4]triazolo[4,3-a][1,4]benzodiazepine] | 716 | 36.6 | 1.56 | 66 | 1.66 | – | – |
| Cc1nnc2n1-c1ccc(C(F)(F)F)c(Cl)c1C(c1ncccc1F)=NC2 [Example 78, 7-chloro-6-(3-fluoro-2-pyridyl)-1-methyl-8-(trifluoromethyl)-4H-[1,2,4]triazolo[4,3-a][1,4]benzodiazepine] | 4440 | 87.4 | 1.94 | 103 | 2.03 | – | – |
| COc1ccc2c(c1Cl)C(c1c(F)cccc1F)=NCc1nnc(C3CC3)n1-2 [Example 79, 7-chloro-1-cyclopropyl-6-(2,6-difluorophenyl)-8-methoxy-4H-[1,2,4]triazolo[4,3-a][1,4]benzodiazepine] | 914 | 17.8 | 1.25 | 79 | 1.79 | – | – |
| COc1nnc2n1-c1ccc(Cl)c(Cl)c1C(c1c(F)cccc1F)=NC2 [Example 90, 7,8-dichloro-6-(2,6-difluorophenyl)-1-methoxy-4H-[1,2,4]triazolo[4,3-a][1,4]benzodiazepine] | 305 | 52.8 | 1.72 | 65 | 1.65 | – | – |
| CO[C@H]1C[C@H](c2nnc3n2-c2ccc(Cl)c(Cl)c2C(c2c(F)cccc2F)=NC3)C1 [Example 91, trans-7,8-dichloro-6-(2,6-difluorophenyl)-1-(3-methoxycyclobutyl)-4H-[1,2,4]triazolo[4,3-a][1,4]benzodiazepine] | 1340 | 36.8 | 1.57 | 58 | 1.58 | – | – |
| Fc1cccc(F)c1C1=NCc2nnc(-c3cccnn3)n2-c2ccc(Br)c(Cl)c21 [Example 104, 8-bromo-7-chloro-6-(2,6-difluorophenyl)-1-pyridazin-3-yl-4H-[1,2,4]triazolo[4,3-a][1,4]benzodiazepine] | 89.3 | 38.1 | 1.58 | 94 | 1.94 | – | – |
| Cc1ncc2n1-c1ccc(Cl)cc1C(c1ccccc1F)=NC2 [Midazolam, reference compound] | 5 | – | – | – | – | −2.2 | ~60 |
